Blank lines part the entries; values can stand above or below the molecule they belong to. Ends that are not written are not given here.
Columns and labels:
B16 cells = assay: Cytotoxicity on B16 cells (CellTiter Glo); format: cell-based, mouse; settings: B16, 2 days, CellTiter Glo, GraphPad Prism; for IC50: unit from plot axis
Method: (§1) Drug concentration (OM) Drug concentration ( nM) […]
(§2) Supplementary Fig 7 . Cytotoxicity of peptide-conjugated SN38, free peptide s and unconjugated SN-38 and irinotecan (CPT-11) on C6 and B16 cells cultured in vitro. Rat glioma C6 and mouse melanoma B16 cells were treated with reagents shown along the top panels at the concentration indicated and cultured for 2 days. Cell viability was determined by a CellTiter Glo (Promega) assay. The IC50 of each reagent was determined using GraphPad Prism program. N.D.: not determined.

C6 cells = assay: Cytotoxicity on C6 cells (CellTiter Glo); format: cell-based, rat; settings: C6, 2 days, CellTiter Glo, GraphPad Prism; for IC50: unit from plot axis
Method: as §1, §2

[1] = test system: B16-Luc brain and subcutaneous tumours; assay: B16-Luc dual-tumour model in C57BL/6 mice; format: in vivo, mouse (C57BL/6); settings: irinotecan 50 μmoles/kg i.v. daily, 6 days
Method: C6-Luc cells (5 × 10^4 suspended in 2 μl PBS) were injected into C57BL/6 mouse brain striatum using a stereotaxic frame as described previously.[21] Seven days later, mice underwent imaging for luciferase-expressing tumours. To do so, 100 μl luciferin (30 mg/ml PBS) was injected peritoneally. Mice were then anesthetised under isoflurane gas (20 ml/min) supplemented with oxygen (1 ml/min) and placed under a camera equipped with a Xenogen IVIS 200 imager at both the SBP and AIST animal facilities. Photon numbers were measured for 1–10 sec or for 1 min. For the dual-tumour model, C6-Luc cells were similarly injected into the brain of NOD-SCID mice. When a brain tumour became detectable by IVIS imager, C6-Luc cells (2 × 10^5 suspended in 100 μl PBS) were injected subcutaneously into the dorsal flank of the same mice. Photon numbers in brain and subcutaneous tumours were measured using the IVIS imager. The dual-tumour model was also produced using B16-Luc cells in the isogeneic C57BL/6 mouse. B16-Luc cells (5 × 10^4) were injected into brains of 8–10-weeks-old C57BL/6 female mice as described above for C6-Luc cells. When brain tumours became detectable, B16-Luc cells (2 × 10^5 cells) were injected subcutaneously into the dorsal flank of the same mouse.
IF7C(RR)-SN38 was injected intravenously through the tail vein into tumour-bearing mice once photon number of C6-Luc brain tumour reached 5 × 10^4, which usually occurred after 2 weeks. IF7C(RR)-SN38 (142 μg or 0.0567 μmoles) dissolved in 10 μl dimethylsulfoxide (DMSO) diluted with 100 μl of 50% Cremophore EL in ethanol plus 90 μl PBS was injected intravenously through the tail vein. As the average body weight of a mouse was 18 g, IF7C(RR)-SN38 dose per injection was 3.15 μmoles/kg. For B16-Luc brain tumours, IF7C(RR)-SN38 formulated with Cremophore EL was used at the dosage 7.0 μmoles/kg. Irinotecan (CPT-11), a water soluble SN38 prodrug, was dissolved in PBS and intravenously injected into mice at 50 μmoles /kg. In another set of experiments, brain tumour-bearing mice were treated with IF7C(RR)-SN38 (100 μg or 0.0412 μmoles) dissolved in 10 μl DMSO followed by dilution with 100 μl 10% Solutol HS15 in water. In that case, drug dosage was 2.5 μmoles/kg. Similarly formulated C(RR)-SN38 served as control.
Fig. 4 Effect of IF7C(RR)-SN38 on the dual-tumour model mice. a Dual-tumour model was established with C6-Luc cells in NOD-SCID mice. C6-Luc cells were grown both in brain and under the skin of mice. When tumours in brain and subcutaneous grew by showing photon number more than 2×10^4, IF7C(RR)-SN38 (3.15 μmoles/kg) was injected intravenously daily through tail vein for 9 days. b Effect of IF7C(RR)-SN38 on a dual-tumour model with B16-Luc melanoma cells in C57BL/6 mice. Growth of B16-Luc cells were monitored as in a similar manner as in a, followed by intravenous injection with either IF7C(RR)-SN38 (7.0 μmoles/kg), irinotecan (CPT-11) (50 μmoles/kg) or buffer control daily for 6 days. The drug was diluted in Cremophore EL. In each a and b, error bars denote means ± SEM. Statistical analysis was assessed by Student’s t-test.

[2] = test system: ANXA1 exhibiting a free N-terminus; assay: FCS binding to ANXA1 with free N-terminus; design: species or system human; settings: IF7C-A546, 37 °C, 1 h, increase in diffusion time
Method: (§3) A mixture of IF7C-A546 with Anxa1 or MC16 (50 μl) was loaded into each well of a 96-well plate and incubated at 37 °C for 1 h. FCS was performed with the MF20 analytical system (Olympus) using a 543 nm He–Ne laser for illumination. Each sample was measured five times with a data acquisition time of 10 sec per measurement. IF7C(RR) binding was defined as an increase in translational diffusion time relative to a control.
(§4) Fig. 2 Binding of IF7 to the ANXA1 N-terminal domain and full-length ANXA1 protein in vitro. a Plate binding assay of N-terminal biotinylated IF7C(RR) to human MC16 peptide and its mutants. Each synthetic MC16 and its mutant peptide (10 nmoles) was bound to maleimide-activated plastic well through its C-terminal cysteine residue. Biotinylated IF7C(RR) peptide (1 μg/mL) was added to each well and binding of biotinylated peptide was detected by peroxidase-conjugated streptavidin and peroxidase colour reaction. b FCS analysis of IF7 with ANXA1 (left) and with MC16 peptides (right) in solution. […] The proposed model was further validated by dG scoring, which was calculated using MOE software with GBVI/WSA, a program allows us to compare calculated and observed energetics.[59] The IF7 docking pose was calculated to be −3.7 kcal/mol.

[3] = test system: N-terminally His-tagged ANXA1; assay: FCS binding to N-terminally His-tagged ANXA1; design: species or system human; settings: IF7C-A546, 37 °C, 1 h, diffusion time
Method: as §3, §4

Annexin A1 = biological target: T1, Annexin A1 (Homo sapiens, UniProt P04083); assay: QCM
T1 chain: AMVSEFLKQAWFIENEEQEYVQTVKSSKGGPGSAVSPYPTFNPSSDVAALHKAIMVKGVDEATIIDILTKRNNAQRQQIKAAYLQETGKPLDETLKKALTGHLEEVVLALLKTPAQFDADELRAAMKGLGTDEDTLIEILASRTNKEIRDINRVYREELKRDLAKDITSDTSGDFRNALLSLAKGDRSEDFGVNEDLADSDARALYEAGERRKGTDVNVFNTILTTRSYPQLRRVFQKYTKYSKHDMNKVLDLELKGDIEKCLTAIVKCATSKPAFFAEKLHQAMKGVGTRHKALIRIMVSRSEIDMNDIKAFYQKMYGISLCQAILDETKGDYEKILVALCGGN

[4] = biological target: T2, MC16 (Annexin A1 N-terminal peptide), tetrameric (Homo sapiens); assay: QCM
T2 chain: MAMVSEFLKQAWFIEC

Molecule: CCc1c2c(nc3ccc(O)cc13)-c1cc3c(c(=O)n1C2)COC(=O)[C@]3(O)CC [SN-38]
logIC50 (B16 cells): 1.499
IC50 (B16 cells): 31.6 nM
logIC50 (C6 cells): 1.433
IC50 (C6 cells): 27.1 nM

Molecule: CCc1c2c(nc3ccc(OC(=O)N4CCC(N5CCCCC5)CC4)cc13)-c1cc3c(c(=O)n1C2)COC(=O)[C@]3(O)CC [Irinotecan]
logIC50 (B16 cells): 4.443
IC50 (B16 cells; Mus musculus, 48 h): 27700 nM
logIC50 (C6 cells): 4.103
IC50 (C6 cells; Rattus norvegicus, 48 h): 12700 nM
brain tumour growth (photon number) [1]: minimally suppressed brain tumour growth
subcutaneous tumour growth (photon number) [1]: suppressed subcutaneous tumour growth

Molecule: IFLLWQRCRR
Kd (Annexin A1): 60.1 nM

Now from value to molecule, other results behind:

binding in solution to N-terminally His-tagged ANXA1 [3]: did not significantly increase
Molecule: IFLLWQRCRR [IF7C(RR), IF7 with C-terminal cysteine extended by two arginines]
binding in solution to untagged ANXA1 [2]: increased significantly compared to the control

Kd [4]: 247 nM
Molecule: IFLLWQRCRR (not fully specified (residue 8); also: tetramer on 4-arm PEG via Cys)
